Data as given in patent US7083932B1, “Nucleic acid molecules encoding peptides having pronociceptive properties” (Euroscreen, s.a., priority 1995, dated 2006).
Structures can show the parent of a compound that is named as a salt. Ends that are not written are not given here.

Assays:
[1] = system: mice; assay: antagonism of nociceptin-induced stimulation of horizontal locomotor activity; type: in vivo
[2] = system: mice; assay: hole board test; type: in vivo; conditions: 5 mg/kg s.c., tested 15 minutes later; saline 150±8
[3] = biological target: ORL1 receptor (Homo sapiens, UniProt P41146); assay: cell-based
[4] = system: CHO(ORL1−) cells; type: cell-based

Chain of ORL1 receptor (P41146 whole entry): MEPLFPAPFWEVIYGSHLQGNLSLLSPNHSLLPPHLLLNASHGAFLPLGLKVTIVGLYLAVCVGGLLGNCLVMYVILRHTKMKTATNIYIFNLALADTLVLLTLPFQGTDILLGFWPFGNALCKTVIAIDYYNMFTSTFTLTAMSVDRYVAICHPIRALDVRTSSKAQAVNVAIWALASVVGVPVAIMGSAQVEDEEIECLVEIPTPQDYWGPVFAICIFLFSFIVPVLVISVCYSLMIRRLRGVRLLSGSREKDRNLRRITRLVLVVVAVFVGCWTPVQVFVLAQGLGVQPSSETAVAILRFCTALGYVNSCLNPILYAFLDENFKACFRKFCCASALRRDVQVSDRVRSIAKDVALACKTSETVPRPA

Compound: C=CCN1CC[C@]23c4c5ccc(O)c4O[C@H]2C(=O)CC[C@@]3(O)[C@H]1C5 [Naloxone, Naloxone hydrochloride]
- effect on motor-stimulant effect of 100 ng nociceptin ([1]; 0.0–4.5 mg/kg s.c., 10 minutes before i.c.v. nociceptin, first 10 minutes of testing): did not suppress

Compound: CN1CC[C@]23c4c5ccc(O)c4O[C@H]2[C@@H](O)C=C[C@H]3[C@H]1C5 [morphin]
- Number of explored holes during the 20 minutes period [2]: 24±2

Compound: YGGFTGARKSARKLANQ [^1Tyr analogue]
- IC50 [3]: 1 nM
- maximal inhibition of forskolin-induced cAMP accumulation [3]: > 90%
- activity on cyclase in wild type cells [4]: totally inactive

Compound: O=C(CCCN1CCC(O)(c2ccc(Cl)cc2)CC1)c1ccc(F)cc1 [haloperidol]
- antagonism of nociceptin stimulation of locomotor activity ([1]; increasing doses of antagonist): antagonized
